From patent EP1002543A1, “Pharmaceutical compositions for the therapy of glioma or prostate cell proliferative disorders containing cyclic rgd compounds” (JCR PHARMACEUTICALS CO., LTD., priority 1998, dated 2000)

Experiments:
U-87MG cells [1] = assay: Effect of cRGD and RGD peptides on growth of human glioma cells (viable cell count by trypan blue dye exclusion; morphology under microscope); type: cell-based; details: 18 hours; for % inhibition: viable cells vs untreated control
Protocol: (§1) Human glioblastoma, U-87MG, and U-373MG cells were obtained from the American Type Culture Collection, Rockville, MD and grown in Dulbecco's modified Eagle's medium supplemented with 10% fetal calf serum (Hyclone Laboratories Inc. Logan, UT), sodium pyruvate (55 mg/L), sodium bicarbonate (1.2 g/L), HEPES (1.2 g/L) and gentamicin (50 µg/ml). U-251MG cells were provided by Dr. G.Y. Gillespie, University of Alabama at Birmingham, Alabama, and were grown in the above media.
(§2) Semi-confluent monolayers of U-87MG, U-251MG and U-373MG cells were treated with different concentrations of cRGD for 18 hours at 37° C incubator with 5% CO2. One set of cells served as untreated control. The cells were monitored under microscope for morphological changes. Most of the cRGD (10 µg/ml)-treated U-87MG (Figure 2; C=control) and U-373MG cells were rounded up. […] The number of viable cells (both treated and untreated) were then counted by trypan blue dye exclusion method using a hemacytometer (Hausser Scientific, Horsham, PA) and percent inhibition was calculated (Table 1).

U-373MG cells = assay: as above; type: cell-based; details: 18 hours; for % inhibition: viable cells vs untreated control
Protocol: as §1, §2

U-251MG cells = assay: as above; type: cell-based; details: 18 hours; for % inhibition: viable cells vs untreated control
Protocol: as §1, §2

U-87MG cells [2] = assay: U-87MG-induced spheroid formation in liquid culture; type: cell-based, Human; details: treated again after 48 hours, further 72 hours
Protocol: U-87MG cells can be grown either as a monolayer or as multicellular three-dimensional spheroids (500-1,000 µm) in liquid culture. Since spheroids closely resemble the architecture of a tumor in vivo, the cultures were contacted with cRGD or RGD to determine if treatment had any effect on spheroid formation. U-87MG cells (5 ×10^5-1×10^6) were mixed with either cRGD (100µg) or RGD (100µg) peptide or PBS (as untreated control) and incubated at 4° C for 30 minutes. Treated and untreated cells were then seeded onto 24-well plate and incubated further at 37° C. Forty eight hours later; the treated cells were treated again with respective peptides and incubated for 72 hours.
In a second study, U-87MG cells were allowed to grow (in a 24-well plate) for 24 hours before the addition of cyclic (50 µg) or linear (50 µg) peptide. One set of cells, with PBS alone, served as untreated control. Forty eight hours later, the cells were treated again with respective cRGD (50 µg) or RGD (50 µg) peptides and incubated for an additional 72 hours.

U-87MG cells [3] = assay: Effect of caspase-3 and caspase-9 inhibitors on cell death induced by cRGDfV (viable cell count, percent survival); type: cell-based, Human; details: U-87MG pretreated with DEVD-FMK (10 µM) or LEHD-FMK (10 µM) for 90 minutes; cRGDfV 20 µg/ml, 18 hours
From the text: To determine whether the observed killing of glioma cells was due to apoptosis, we used inhibitors of caspase-3 (DEVD-FMK) and caspase-9 (LEHD-FMK), two of the cysteine aspartyl proteases, known to be involved in apoptosis (see Salvesen GS, Dixit VM (1997) Cell 91:443-446; Cohen GM (1997) Biochem J326:1-16; Janicke RU, Sprengart ML, Wati MR, Porter AG (1998) J Biol Chem 273:9357-9360; Cardone MH, Roy N, Stennicke, HR, Salvesen GS, Franke TF, Stanbridge E, Frisch S, Reed JC (1998) Science 282:1318-1321; Sakahira H, Enari M, Nagata S (1998) Nature 391:96-99). Caspase-3 is required for morphological changes and cleavage of poly(ADP-ribose) polymerase (PARP), a cellular enzyme implicated in DNA repair mechanism. Caspase-9 is involved in cytochrome c-induced apoptosis by activating procaspase-3 which finally leads to apoptosis. Briefly, U-87MG and U-251MG cells were harvested from monolayer culture and were treated with DEVD-FMK (10 µM) or LEHD-FMK (10 µM) for 90 minutes at 37°C. One set of cells without any inhibitor served as control. Cells were then washed and incubated in the presence or absence of cRGDfV (20 µg/ml) at 37°C, 5% CO2 for 18 hours. The number of viable cells, both in control and treated groups were counted and percent survival was determined.

Row | Compound | % inhibition (U-87MG cells [1]; 10 ug/ml) [%] | % inhibition (U-87MG cells [1]; 20 ug/ml) [%] | % inhibition (U-373MG cells; 10 ug/ml) [%] | % inhibition (U-373MG cells; 20 ug/ml) [%] | % inhibition (U-251MG cells; 10 ug/ml) [%] | % inhibition (U-251MG cells; 20 ug/ml) [%] | effect on spheroid formation (U-87MG cells [2]; first study: 100µg peptide mixed with cells) | morphological changes (U-87MG cells [1]; 10 µg/ml) | morphological changes (U-373MG cells; 10 µg/ml) | morphological changes (U-251MG cells; 10 µg/ml) | reduction of the size of the spheroids (U-87MG cells [2]; first study: 100µg peptide mixed with cells, vs untreated control) | effect on spheroid formation (U-87MG cells [2]; second study: cells grown 24 hours, 50 µg peptide) | number of viable cells after cRGDfV treatment (U-87MG cells [3])
1 | N=C(N)NCCC[C@H](N)C(=O)NCC(=O)N[C@@H](CC(=O)O)C(=O)O [RGD, H-Arg-Gly-Asp-OH, reference compound] | 0 | 3.5 | 6.7 | 0 | 0 | 13 | did not appear to effect spheroid formation |  |  |  |  |  | 
2 | cyclo(Arg-Gly-Asp-D-Phe-Val) [cRGD] | 52.9 | 70.6 | 46.7 | 80.0 | 0 | 5.9 |  | rounded up | rounded up | no significant morphological changes | at least 70% | significant inhibitory effect on the spheroid formation | inability of cRGDfV to reduce the number of viable U-87MG cell
